Assay results as given in PubChem BioAssay AID2060892 (Molecular Pharmacology Branch, DTP, NCI, 2025).

Tested on: HOP-62 complex spheroids with HUVEC/MSC, viability
Assay: Anticancer human tumor HOP-62 cell line growth inhibition [RAS];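 also: spheroids exposed to agents for seven days before readout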;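 as to viability, T/C: 100% = DMSO vehicle control viability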
Conditions: for IC50: curve of first compound; for viability, T/C: stronger effect = lower value
Summary of the method: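 Agents were tested in combination matrices in half-log decrements from a top concentration at or near clinical Cmax (10 microM if undetermined). Targets were multi-cell spheroids of tumour lines plus HUVEC and MSC stromal cells.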

[1] = second compound 0.00316 µM, first compound 0.0316 µM
[2] = second compound 0.00316 µM, first compound 0.1 µM
[3] = second compound 0.00316 µM, first compound 0.316 µM
[4] = second compound 0.00316 µM, first compound 1 µM
[5] = second compound 0.00316 µM, first compound 3.16 µM
[6] = second compound 0.00316 µM, first compound 10 µM
[7] = second compound 0.01 µM, first compound 0.0316 µM
[8] = second compound 0.01 µM, first compound 0.1 µM
[9] = second compound 0.01 µM, first compound 0.316 µM
[10] = second compound 0.01 µM, first compound 1 µM
[11] = second compound 0.01 µM, first compound 3.16 µM
[12] = second compound 0.01 µM, first compound 10 µM
[13] = second compound 0.0316 µM, first compound 0.0316 µM
[14] = second compound 0.0316 µM, first compound 0.1 µM
[15] = second compound 0.0316 µM, first compound 0.316 µM
[16] = second compound 0.0316 µM, first compound 1 µM
[17] = second compound 0.0316 µM, first compound 3.16 µM
[18] = second compound 0.0316 µM, first compound 10 µM
[19] = second compound 0.1 µM, first compound 0.0316 µM
[20] = second compound 0.1 µM, first compound 0.1 µM
[21] = second compound 0.1 µM, first compound 0.316 µM
[22] = second compound 0.1 µM, first compound 1 µM
[23] = second compound 0.1 µM, first compound 3.16 µM
[24] = second compound 0.1 µM, first compound 10 µM
[25] = second compound 0.316 µM, first compound 0.0316 µM
[26] = second compound 0.316 µM, first compound 0.1 µM
[27] = second compound 0.316 µM, first compound 0.316 µM
[28] = second compound 0.316 µM, first compound 1 µM
[29] = second compound 0.316 µM, first compound 3.16 µM
[30] = second compound 0.316 µM, first compound 10 µM
[31] = second compound 1 µM, first compound 0.0316 µM
[32] = second compound 1 µM, first compound 0.1 µM
[33] = second compound 1 µM, first compound 0.316 µM
[34] = second compound 1 µM, first compound 1 µM
[35] = second compound 1 µM, first compound 3.16 µM
[36] = second compound 1 µM, first compound 10 µM

Compound: CC(=O)OC12COC1CC(O)C1(C)C(=O)C(O)C3=C(C)C(OC(=O)C(O)C(NC(=O)OC(C)(C)C)c4ccccc4)CC(O)(C(OC(=O)c4ccccc4)C21)C3(C)C (stereo unspecified) + C=CC(=O)N1CCN(c2nc(OCC3CCCN3C)nc3c(F)c(-c4nc(N)cc(C)c4C(F)(F)F)c(Cl)cc23)C(C)C1
- IC50 (second compound 0.00316 µM): < 31.6 nM
- IC50 (second compound 0.01 µM): < 31.6 nM
- IC50 (second compound 0.0316 µM): < 31.6 nM
- IC50 (second compound 0.1 µM): < 31.6 nM
- IC50 (second compound 0.316 µM): < 31.6 nM
- IC50 (second compound 1 µM): < 31.6 nM
- viability, T/C [1]: 11.2%
- viability, T/C [2]: 14.7%
- viability, T/C [3]: 10.4%
- viability, T/C [4]: 12.3%
- viability, T/C [5]: 15.1%
- viability, T/C [6]: 20.3%
- viability, T/C [7]: 10.4%
- viability, T/C [8]: 11.1%
- viability, T/C [9]: 13.4%
- viability, T/C [10]: 10.4%
- viability, T/C [11]: 12.5%
- viability, T/C [12]: 16.6%
- viability, T/C [13]: 9.88%
- viability, T/C [14]: 11.9%
- viability, T/C [15]: 11%
- viability, T/C [16]: 13%
- viability, T/C [17]: 15.2%
- viability, T/C [18]: 14.6%
- viability, T/C [19]: 11.6%
- viability, T/C [20]: 12.4%
- viability, T/C [21]: 11.9%
- viability, T/C [22]: 13.6%
- viability, T/C [23]: 15.2%
- viability, T/C [24]: 19%
- viability, T/C [25]: 9.18%
- viability, T/C [26]: 9.55%
- viability, T/C [27]: 10.4%
- viability, T/C [28]: 10.9%
- viability, T/C [29]: 14.8%
- viability, T/C [30]: 20.1%
- viability, T/C [31]: 10.2%
- viability, T/C [32]: 10.5%
- viability, T/C [33]: 13%
- viability, T/C [34]: 14.2%
- viability, T/C [35]: 15.5%
- viability, T/C [36]: 20.1%

Compound: NC1c2ccccc2OC12CCN(c1cnc3c(N4CCCc5ncccc54)n[nH]c3n1)CC2 (stereo unspecified) + C=CC(=O)N1CCN(c2nc(OCC3CCCN3C)nc3c(F)c(-c4nc(N)cc(C)c4C(F)(F)F)c(Cl)cc23)C(C)C1
- IC50 (second compound 0.00316 µM): < 31.6 nM
- IC50 (second compound 0.01 µM): < 31.6 nM
- IC50 (second compound 0.0316 µM): < 31.6 nM
- IC50 (second compound 0.1 µM): < 31.6 nM
- IC50 (second compound 0.316 µM): < 31.6 nM
- IC50 (second compound 1 µM): < 31.6 nM
- viability, T/C [1]: 45.5%
- viability, T/C [2]: 30.2%
- viability, T/C [3]: 15%
- viability, T/C [4]: 13.9%
- viability, T/C [5]: 9.04%
- viability, T/C [6]: 8.74%
- viability, T/C [7]: 34.9%
- viability, T/C [8]: 22.6%
- viability, T/C [9]: 11.9%
- viability, T/C [10]: 11.9%
- viability, T/C [11]: 9.09%
- viability, T/C [12]: 10.8%
- viability, T/C [13]: 30.6%
- viability, T/C [14]: 18.5%
- viability, T/C [15]: 12.2%
- viability, T/C [16]: 10.9%
- viability, T/C [17]: 10.3%
- viability, T/C [18]: 7.74%
- viability, T/C [19]: 30.8%
- viability, T/C [20]: 15.1%
- viability, T/C [21]: 11%
- viability, T/C [22]: 10.3%
- viability, T/C [23]: 9.12%
- viability, T/C [24]: 8.09%
- viability, T/C [25]: 28.3%
- viability, T/C [26]: 14.4%
- viability, T/C [27]: 11.2%
- viability, T/C [28]: 10.5%
- viability, T/C [29]: 6.82%
- viability, T/C [30]: 8.51%
- viability, T/C [31]: 29.5%
- viability, T/C [32]: 15.3%
- viability, T/C [33]: 10.8%
- viability, T/C [34]: 9.35%
- viability, T/C [35]: 10.7%
- viability, T/C [36]: 5.7%

Compound: Nc1ccn(C2OC(CO)C(O)C2(F)F)c(=O)n1 (stereo unspecified) + C=CC(=O)N1CCN(c2nc(OCC3CCCN3C)nc3c(F)c(-c4nc(N)cc(C)c4C(F)(F)F)c(Cl)cc23)C(C)C1
- IC50 (second compound 0.00316 µM): 4.79 nM
- IC50 (second compound 0.01 µM): 4 nM
- IC50 (second compound 0.0316 µM): 3.8 nM
- IC50 (second compound 0.1 µM): 3.57 nM
- IC50 (second compound 0.316 µM): 3.88 nM
- IC50 (second compound 1 µM): 3.32 nM
- viability, T/C (second compound 0.00316 µM, first compound 0.00316 µM): 71.5%
- viability, T/C (second compound 0.00316 µM, first compound 0.01 µM): 11.7%
- viability, T/C [1]: 4.51%
- viability, T/C [2]: 3.58%
- viability, T/C [3]: 3.88%
- viability, T/C [4]: 4.22%
- viability, T/C (second compound 0.01 µM, first compound 0.00316 µM): 61%
- viability, T/C (second compound 0.01 µM, first compound 0.01 µM): 7.13%
- viability, T/C [7]: 4.46%
- viability, T/C [8]: 3.64%
- viability, T/C [9]: 3.98%
- viability, T/C [10]: 4.49%
- viability, T/C (second compound 0.0316 µM, first compound 0.00316 µM): 57.3%
- viability, T/C (second compound 0.0316 µM, first compound 0.01 µM): 11.7%
- viability, T/C [13]: 4.71%
- viability, T/C [14]: 4.6%
- viability, T/C [15]: 4.09%
- viability, T/C [16]: 3.59%
- viability, T/C (second compound 0.1 µM, first compound 0.00316 µM): 54.7%
- viability, T/C (second compound 0.1 µM, first compound 0.01 µM): 10.5%
- viability, T/C [19]: 3.96%
- viability, T/C [20]: 3.63%
- viability, T/C [21]: 4.57%
- viability, T/C [22]: 3.1%
- viability, T/C (second compound 0.316 µM, first compound 0.00316 µM): 58.8%
- viability, T/C (second compound 0.316 µM, first compound 0.01 µM): 9.95%
- viability, T/C [25]: 5.61%
- viability, T/C [26]: 4.79%
- viability, T/C [27]: 5.44%
- viability, T/C [28]: 3.53%
- viability, T/C (second compound 1 µM, first compound 0.00316 µM): 51.9%
- viability, T/C (second compound 1 µM, first compound 0.01 µM): 6.83%
- viability, T/C [31]: 4.34%
- viability, T/C [32]: 3.74%
- viability, T/C [33]: 4.68%
- viability, T/C [34]: 3.28%
